Source: patent US9822099B2, “Triazole derivatives” (priority 2013, dated 2017)
Where two headings read alike, the source gives them in different places. Marks after values point to notes of the source that are not given here.

What was measured:
Sphaerotheca fuliginea = assay: Example E: in vivo preventive test on Sphaerotheca fuliginea (powdery mildew on cucurbits); settings: gherkin plants, preventive spray, evaluated 15 days after inoculation
Method: (§1) The young plants of gherkin are treated by spraying the active ingredient prepared as described above. Control plants are treated only with an aqueous solution of acetone/Dimethyl sulfoxide/Tween®. After 24 hours, the plants are contaminated by spraying the leaves with an aqueous suspension of Sphaerotheca fuliginea spores.

Pyrenophora teres = assay: Example C: in vivo preventive test on Pyrenophora teres (net blotch on barley); settings: barley plants, preventive spray, evaluated 14 days after inoculation
Method: as §1, with “barley” for “gherkin”, “Pyrenophora teres” for “Sphaerotheca fuliginea”

Fusarium graminearum = type: in vivo; settings: 500 ppm of active ingredient; barley, preventive; evaluated 5 days after inoculation
Venturia inaequalis = assay: Example O: Venturia test (apples)/preventive; type: in vivo; settings: 100 ppm of active ingredient, preventive, evaluated 10 days after inoculation
Method: Solvent: 24.5 parts by weight of acetone • 24.5 parts by weight of dimethylacetamide Emulsifier: 1 part by weight of alkylaryl polyglycol ether To produce a suitable preparation of active compound, 1 part by weight of active compound is mixed with the stated amounts of solvent and emulsifier, and the concentrate is diluted with water to the desired concentration. To test for preventive activity, young plants are sprayed with the preparation of active compound at the stated rate of application.

Septoria tritici = assay: Example D: in vivo preventive test on Septoria tritici (leaf spot on wheat); settings: wheat plants, preventive spray, evaluated 24 days after inoculation
Method: as §1, with “wheat” for “gherkin”, “Septoria tritici” for “Sphaerotheca fuliginea”

Puccinia recondita = assay: Example B: in vivo preventive test on Puccinia recondita (brown rust on wheat); settings: wheat plants, preventive spray, evaluated 11 days after inoculation
Method: as §1, with “wheat” for “gherkin”, “Puccinia recondita” for “Sphaerotheca fuliginea”

Leptosphaeria nodorum = assay: Example K: Leptosphaeria nodorum test (wheat)/preventive; type: in vivo; settings: 500 ppm of active ingredient, preventive, evaluated 8 days after inoculation
Method: Solvent: 49 parts by weight of N,N-dimethylacetamide Emulsifier: 1 part by weight of alkylaryl polyglycol ether To produce a suitable preparation of active compound, 1 part by weight of active compound or active compound combination is mixed with the stated amounts of solvent and emulsifier, and the concentrate is diluted with water to the desired concentration. To test for preventive activity, young plants are sprayed with the preparation of active compound or active compound combination at the stated rate of application. After the spray coating has been dried, the plants are sprayed with a spore suspension of Leptosphaeria nodorum.

[1] = system: Blumeria graminis f. sp. hordei; assay: Example G: Blumeria test (barley)/preventive; type: in vivo; settings: 500 ppm of active ingredient, preventive, evaluated 7 days after inoculation
Method: Solvent: 49 parts by weight of N,N-dimethylacetamide Emulsifier: 1 part by weight of alkylaryl polyglycol ether To produce a suitable preparation of active compound, 1 part by weight of active compound or active compound combination is mixed with the stated amounts of solvent and emulsifier, and the concentrate is diluted with water to the desired concentration. To test for preventive activity, young plants are sprayed with the preparation of active compound or active compound combination at the stated rate of application. After the spray coating has been dried, the plants are dusted with spores of Blumeria graminis f. sp. hordei.

Phakopsora pachyrhizi = assay: Example L: Phakopsora test (soybeans)/preventive; type: in vivo; settings: preventive, evaluated 7 days after inoculation
Uromyces appendiculatus = assay: Example F: in vivo preventive test on Uromyces appendiculatus (bean rust); settings: bean plants, preventive spray, evaluated 11 days after inoculation
Method: as §1, with “bean” for “gherkin”, “Uromyces appendiculatus” for “Sphaerotheca fuliginea”

[2] = system: Fusarium nivale (var. majus); assay: Example J: Fusarium nivale (var. majus)-test (wheat)/preventive; type: in vivo; settings: 500 ppm of active ingredient, preventive, evaluated 5 days after inoculation
Method: (§2) Solvent: 49 parts by weight of N,N-dimethylacetamide
(§3) Emulsifier: 1 part by weight of alkylaryl polyglycol ether
(§4) To produce a suitable preparation of active compound, 1 part by weight of active compound or active compound combination is mixed with the stated amounts of solvent and emulsifier, and the concentrate is diluted with water to the desired concentration.
To test for preventive activity, young plants are sprayed with the preparation of active compound or active compound combination at the stated rate of application.
After the spray coating has been dried, the plants are slightly injured by using a sandblast and afterwards they are sprayed with a conidia suspension of Fusarium nivale (var. majus).
The plants are placed in the greenhouse under a translucent incubation cabinet at a temperature of approximately 10° C. and a relative atmospheric humidity of approximately 100%.
(§5) The test is evaluated 5 days after the inoculation. 0% means an efficacy which corresponds to that of the untreated control, while an efficacy of 100% means that no disease is observed.

Botrytis cinerea = assay: Example A: in vivo preventive test on Botrytis cinerea (grey mould); settings: gherkin plants, preventive spray, evaluated 4 to 5 days after inoculation
Method: as §1, with “Botrytis cinerea” for “Sphaerotheca fuliginea”

Pyricularia oryzae = type: in vivo; settings: 500 ppm of active ingredient; rice, preventive; evaluated 8 days after inoculation
Fusarium culmorum = assay: Example H: Fusarium culmorum-test (wheat)/curative; type: in vivo; settings: 500 ppm of active ingredient, curative, evaluated 5 days after inoculation
Method: as §2, §3, §4
To test for curative activity, young plants are slightly injured by using a sandblast and afterwards they are sprayed with a conidia suspension of Fusarium culmorum and placed for 24 hours in a greenhouse under a translucent incubation cabinet at a temperature of approximately 22° C. and a relative atmospheric humidity of approximately 100% and are subsequently sprayed with the preparation of active compound at the stated rate of application.
After the spray coating has been dried, the plants remain in the greenhouse under translucent incubation cloches at a temperature of approximately 22° C. and a relative atmospheric humidity of approximately 100%.
as §5

| SMILES | Eff. % (Sphaerotheca fuliginea; 500 ppm of active ingredient) | LogP (pH 2.7) | Eff. % (Pyrenophora teres; 500 ppm of active ingredient) | Eff. % (Fusarium graminearum) | Eff. % (Septoria tritici; 500 ppm of active ingredient) | Eff. % (Puccinia recondita; 500 ppm of active ingredient) | Eff. % (Leptosphaeria nodorum) | Eff. % [1] | Eff. % (Uromyces appendiculatus; 500 ppm of active ingredient) | Eff. % [2] | Eff. % (Botrytis cinerea; 500 ppm of active ingredient) | Eff. % (Pyricularia oryzae) | Eff. % (Phakopsora pachyrhizi; 10 ppm of active ingredient) | Eff. % (Fusarium culmorum) | Eff. % (Sphaerotheca fuliginea; 100 ppm of active ingredient) | Eff. % (Septoria tritici; 100 ppm of active ingredient) | Eff. % (Puccinia recondita; 100 ppm of active ingredient) | further results |
| --- | --- | --- | --- | --- | --- | --- | --- | --- | --- | --- | --- | --- | --- | --- | --- | --- | --- | --- |
| OC(CCc1ccc(Cl)cc1)(Cc1ccncc1Cl)Cn1cncn1 (racemic) [Example I-69] | 100% | 2.40^[a] | 93% | 71% | 100% | 98% | 89% | 100% | 100% | – | – | – | – | – | – | – | – | Eff. % (Venturia inaequalis): 100%; Eff. % (Phakopsora pachyrhizi; 100 ppm of active ingredient): 91% |
| OC(Cc1ccncc1Cl)(Cn1cncn1)C1CCC1 (racemic) [Example I-77] | 100% | 1.46^[a] | 86% | 86% | 100% | 98% | – | 100% | 100% | 83% | 100% | 86% | – | – | – | – | – | Eff. % (Phakopsora pachyrhizi; 100 ppm of active ingredient): 100% |
| OC(Cc1ccncc1C(F)(F)F)(Cn1cncn1)C1(Cl)CC1 (racemic) [Example I-81] | 100% | 2.08^[a] | 97% | 100% | 100% | 100% | 100% | 100% | 100% | 100% | 99% | 100% | 85% | – | – | – | – | – |
| OC(Cc1cccnc1Cl)(Cn1cncn1)C1(Cl)CC1 (single isomer, unassigned) [Example I-95] | – | 1.81^[a] | – | 100% | – | – | 100% | 100% | – | 100% | – | 100% | – | – | – | – | – | LogP (pH 7.8): 1.79^[b]; |
| OC(Cc1ccc(Cl)nc1)(Cn1cncn1)C1(Cl)CC1 (stereo not shown) [Example I-4] | 100% | 1.84^[a] | – | – | 96% | 100% | 80% | 100% | 97% | 71% | 100% | – | – | 92% | – | – | – | Eff. % (Phakopsora pachyrhizi; 100 ppm of active ingredient): 95% |
| OC(Cc1ccncc1F)(Cn1cncn1)C1(F)CC1 (stereo not shown) [Example I-19] | – | 0.91^[a] | – | 100% | – | – | 100% | 100% | – | 100% | – | 100% | 96% | 100% | 100% | 75% | 88% | Eff. % (Pyrenophora teres; 100 ppm of active ingredient): 75%; Eff. % (Botrytis cinerea; 100 ppm of active ingredient): 100%; Eff. % (Uromyces appendiculatus; 100 ppm of active ingredient): 98% |
| CC(CF)(CF)C(O)(Cc1ccncc1F)Cn1cncn1 (stereo not shown) [Example I-21] | – | 1.27^[a] | – | 100% | – | – | 94% | 100% | – | 100% | – | – | 93% | 100% | 100% | 100% | 98% | Eff. % (Uromyces appendiculatus; 100 ppm of active ingredient): 100% |
| OC(Cc1cccc(Cl)n1)(Cn1cncn1)C1(Cl)CC1 (stereo not shown) [Example I-29] | 100% | 2.18^[a] | 95% | 100% | 100% | 97% | 100% | 100% | 100% | 100% | 94% | 70% | – | 100% | – | – | – | – |
| OC(Cc1ccnc(Cl)c1)(Cn1cncn1)C1(Cl)CC1 (stereo not shown) [Example I-39] | 100% | 1.76^[a] | 100% | 100% | 100% | 97% | 100% | 100% | 100% | 100% | 99% | 80% | 88% | 100% | – | – | – | – |
| OC(Cc1ccnnc1Cl)(Cn1cncn1)C1(Cl)CC1 (stereo not shown) [Example I-45] | – | 1.31^[a] | – | 100% | – | – | 88% | 100% | – | 100% | – | – | 93% | 100% | 100% | 100% | 97% | Eff. % (Uromyces appendiculatus; 100 ppm of active ingredient): 100% |
| OC(Cc1cc(Cl)nnc1Cl)(Cn1cncn1)C1(Cl)CC1 (stereo not shown) [Example I-46] | – | 1.92^[a] | – | 92% | – | – | 83% | – | – | 100% | – | 78% | – | – | 100% | 100% | 88% | – |
| OC(Cc1cc(Cl)ncc1Cl)(Cn1cncn1)C1(Cl)CC1 (stereo not shown) [Example I-58] | 100% | 2.53^[a] | 95% | 100% | 100% | 97% | 93% | 100% | 100% | 100% | 98% | 100% | 89% | – | – | – | – | – |
| CC(CF)(CF)C(O)(Cc1ccnc(Cl)c1F)Cn1cncn1 (stereo not shown) [Example I-61] | 100% | 1.87^[a] | 93% | 100% | 100% | 98% | 75% | 100% | 100% | 100% | 99% | – | 80% | 100% | – | – | – | – |
